Data from patent US11802120B2, “Fused cyclic urea derivatives as CRHR2 antagonist” (RaQualia Pharma Inc., priority 2018, dated 2023).

Target: T1, human CRHR2-alpha (Homo sapiens, UniProt Q13324)
T1 sequence (Q13324 1-411): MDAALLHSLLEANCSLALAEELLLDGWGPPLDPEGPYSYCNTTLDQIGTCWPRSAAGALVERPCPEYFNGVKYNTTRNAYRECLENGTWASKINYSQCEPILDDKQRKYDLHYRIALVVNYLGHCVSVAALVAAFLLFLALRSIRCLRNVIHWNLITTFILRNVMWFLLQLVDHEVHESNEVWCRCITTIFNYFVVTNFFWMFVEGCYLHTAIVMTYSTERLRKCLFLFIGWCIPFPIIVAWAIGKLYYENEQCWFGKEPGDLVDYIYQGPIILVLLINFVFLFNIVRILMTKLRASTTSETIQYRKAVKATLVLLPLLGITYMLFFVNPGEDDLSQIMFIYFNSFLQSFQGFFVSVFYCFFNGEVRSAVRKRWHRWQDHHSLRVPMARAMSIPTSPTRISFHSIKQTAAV
Assay: cAMP functional assay for human CRHR2 (LANCE Ultra cAMP, TR-FRET)
Type: cell-based
Settings: CHO-K1 cells expressing human CRHR2-alpha, agonist human urocortin2 at EC80, cAMP; read-out: IC50 against CRHR2
Outline: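 CHO-K1 stable lines; 4,000 cells/well; compound 30 min, 25° C; EC80 agonist (human urocortin2 → CRHR2, CRF → CRHR1) 30 min, 25° C; buffer HBSS/0.1% BSA/0.5 mM IBMX/5 mM Hepes pH 7.4; Eu-cAMP tracer + ULight antibody 60 min; TR-FRET read; IC50 from % inhibition curves.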

| Compound | IC50 [nM] |
| --- | --- |
| Cc1ncc(Cl)cc1C(=O)N[C@H]1CC[C@H](Cn2c(=O)n(-c3ccnc(-c4cnco4)c3)c3ccccc32)CC1 [Example 521, 5-chloro-2-methyl-N-((1r,4r)-4-((3-(2-(oxazol-5-yl)pyridin-4-yl)-2-oxo-2,3-dihydro-1H-benzo[d]imidazol-1-yl)methyl)cyclohexyl)nicotinamide] | < 300 |
| CNc1ncc(-n2c(=O)n(C[C@H]3CC[C@H](NC(=O)c4cc(Cl)cnc4C)CC3)c3ccccc32)cc1Cl [Example 522, 5-chloro-N-((1r,4r)-4-((3-(5-chloro-6-(methylamino)pyridin-3-yl)-2-oxo-2,3-dihydro-1H-benzo[d]imidazol-1-yl)methyl)cyclohexyl)-2-methyl-nicotinamide] | < 300 |
| O=C(N[C@H]1CC[C@H](Cn2c(=O)n(-c3ccc(N4CCNC4=O)nc3)c3ccccc32)CC1)c1cc(Cl)cnc1C(F)F [Example 523, 5-chloro-2-(difluoromethyl)-N-((1r,4r)-4-((2-oxo-3-(6-(2-oxoimidazolidin-1-yl)pyridin-3-yl)-2,3-dihydro-1H-benzo[d]imidazol-1-yl)methyl)cyclohexyl)nicotinamide] | < 300 |
| CN1CCN(c2ccc(-n3c(=O)n(C[C@H]4CC[C@H](NC(=O)c5cc(Cl)cnc5C(F)F)CC4)c4ccccc43)cn2)C1=O [Example 524, 5-chloro-2-(difluoromethyl)-N-((1r,4r)-4-((3-(6-(3-methyl-2-oxoimidazolidin-1-yl)pyridin-3-yl)-2-oxo-2,3-dihydro-1H-benzo[d]imidazol-1-yl)methyl)cyclohexyl) nicotinamide] | < 300 |
| CNC(=O)c1ccc(-n2c(=O)n(C[C@H]3CC[C@H](NC(=O)c4cc(Cl)cnc4C(F)F)CC3)c3cccc(C)c32)cn1 [Example 527, 5-(3-(((1r,4r)-4-(5-chloro-2-(difluoromethyl)nicotinamido)cyclohexyl)methyl)-7-methyl-2-oxo-2,3-dihydro-1H-benzo [d]imidazol-1-yl)-N-methylpicolinamide] | < 300 |
| CNC(=O)c1ccc(-n2c(=O)n(C[C@H]3CC[C@H](NC(=O)c4cc(Cl)cnc4C(F)F)CC3)c3cc(OC)ccc32)cn1 [Example 528, 5-(3-(((1r,4r)-4-(5-chloro-2-(difluoromethyl)nicotinamido)cyclohexyl)methyl)-5-methoxy-2-oxo-2,3-dihydro-1H-benzo [d]imidazol-1-yl)-N-methylpicolinamide] | < 300 |
| CNC(=O)c1ccc(-n2c(=O)n(C[C@H]3CC[C@H](NC(=O)c4cc(Cl)cnc4C(F)F)CC3)c3cc(C)ccc32)cn1 [Example 529, 5-(3-(((1r,4r)-4-(5-chloro-2-(difluoromethyl)nicotinamido)cyclohexyl)methyl)-5-methyl-2-oxo-2,3-dihydro-1H-benzo [d]imidazol-1-yl)-N-methylpicolinamide] | < 300 |
| CNC(=O)c1ccc(-n2c(=O)n(C[C@H]3CC[C@H](NC(=O)c4cc(Cl)cnc4C(F)F)CC3)c3cc(F)ccc32)cn1 [Example 530, 5-(3-(((1r,4r)-4-(5-chloro-2-(difluoromethyl)nicotinamido)cyclohexyl)methyl)-5-fluoro-2-oxo-2,3-dihydro-1H-benzo [d]imidazol-1-yl)-N-methylpicolinamide] | < 300 |
| CNC(=O)c1ccc(-n2c(=O)n(C[C@H]3CC[C@H](NC(=O)c4cc(Cl)ccc4OC(F)(F)F)CC3)c3ccccc32)cn1 [Example 531, 5-(3-(((1r,4r)-4-(5-chloro-2-(trifluoromethoxy)benzamido)cyclohexyl)methyl)-2-oxo-2,3-dihydro-1H-benzo[d]imidazol-1-yl)-N-methyl-picolinamide] | < 300 |
| CNC(=O)c1ccc(-n2c(=O)n(C[C@H]3CC[C@H](NC(=O)c4cc(C(F)(F)F)ccc4C)CC3)c3ccccc32)cn1 [Example 532, N-methyl-5-(3-(((1r,4r)-4-(2-methyl-5-(trifluoromethyl)benzamido)cyclohexyl)methyl)-2-oxo-2,3-dihydro-1H-benzo[d]imidazol-1-yl) picolinamide] | < 300 |
| CNC(=O)c1ccc(-n2c(=O)n(C[C@H]3CC[C@H](NC(=O)c4cc(Cl)ccc4OC(F)F)CC3)c3ccccc32)cn1 [Example 533, 5-(3-(((1r,4r)-4-(5-chloro-2-(difluoromethoxy)benzamido)cyclohexyl)methyl)-2-oxo-2,3-dihydro-1H-benzo[d]imidazol-1-yl)-N-methylpicolinamide] | < 300 |
| CNC(=O)c1ccc(-n2c(=O)n(C[C@H]3CC[C@H](NC(=O)c4cc(Cl)cnc4N)CC3)c3ccccc32)cn1 [Example 534, 5-(3-(((1r,4r)-4-(2-amino-5-chloronicotinamido)cyclo-hexyl)methyl)-2-oxo-2,3-dihydro-1H-benzo[d]imidazol-1-yl)-N-methylpicolinamide] | < 300 |
| Cc1ncc(Cl)cc1C(=O)N[C@H]1CC[C@H](Cn2c(=O)n(-c3cccc(-n4ccnn4)c3)c3ccccc32)CC1 [Example 537, N-((1r,4r)-4-((3-(3-(1H-1,2,3-triazol-1-yl)phenyl)-2-oxo-2,3-dihydro-1H-benzo[d]imidazol-1-yl)methyl)cyclohexyl)-5-chloro-2-methylnicotinamide] | < 300 |
| Cc1ncc(Cl)cc1C(=O)N[C@H]1CC[C@H](Cn2c(=O)n(-c3cccc(-n4ccnc4)c3)c3ccccc32)CC1 [Example 539, N-((1r,4r)-4-((3-(3-(1H-imidazol-1-yl)phenyl)-2-oxo-2,3-dihydro-1H-benzo[d]imidazol-1-yl)methyl)cyclohexyl)-5-chloro-2-methylnicotinamide] | < 300 |
| Cc1ncc(Cl)cc1C(=O)N[C@H]1CC[C@H](Cn2c(=O)n(-c3cccc(-n4cccn4)c3)c3ccccc32)CC1 [Example 541, N-((1r,4r)-4-((3-(3-(1H-pyrazol-1-yl)phenyl)-2-oxo-2,3-dihydro-1H-benzo[d]imidazol-1-yl)methyl)cyclohexyl)-5-chloro-2-methylnicotinamide] | < 300 |
| CNC(=O)c1ccc(-n2c(=O)n(C[C@H]3CC[C@H](NC(=O)c4cc(Cl)cnc4Cl)CC3)c3ccccc32)cn1 [Example 542, 5-(3-(((1r,4r)-4-(2,5-dichloronicotinamido)cyclohexyl)methyl)-2-oxo-2,3-dihydro-1H-benzo[d]imidazol-1-yl)-N-methylpicolinamide] | < 300 |
| O=C(N[C@H]1CC[C@H](Cn2c(=O)n(-c3ccc(NC4CC4)nc3)c3ccccc32)CC1)c1cc(Cl)cnc1C(F)F [Example 543, 5-chloro-N-((1r,4r)-4-((3-(6-(cyclopropylamino)pyridin-3-yl)-2-oxo-2,3-dihydro-1H-benzo[d]imidazol-1-yl)methyl)cyclohexyl)-2-(difluoro-methyl)nicotinamide] | < 300 |
| CNc1ncc(-n2c(=O)n(C[C@H]3CC[C@H](NC(=O)c4cc(Cl)cnc4C(F)(F)F)CC3)c3ccccc32)cc1C [Example 544, 5-chloro-N-((1r,4r)-4-((3-(5-methyl-6-(methylamino)pyridin-3-yl)-2-oxo-2,3-dihydro-1H-benzo[d]imidazol-1-yl)methyl)cyclo-hexyl)-2-(trifluoromethyl) nicotinamide] | < 300 |
| CNc1cc(C)c(-n2c(=O)n(C[C@H]3CC[C@H](NC(=O)c4cc(Cl)cnc4C(F)(F)F)CC3)c3ccccc32)cn1 [Example 545, 5-chloro-N-((1r,4r)-4-((3-(4-methyl-6-(methylamino)pyridin-3-yl)-2-oxo-2,3-dihydro-1H-benzo[d]imidazol-1-yl)methyl)cyclohexyl)-2-(trifluoromethyl)nicotinamide] | < 300 |
| Cn1ncc2cc(-n3c(=O)n(C[C@H]4CC[C@H](NC(=O)c5cc(Cl)cnc5C(F)F)CC4)c4cccnc43)ccc21 [Example 547, 5-chloro-2-(difluoromethyl)-N-((1r,4r)-4-((3-(1-methyl-1H-indazol-5-yl)-2-oxo-2,3-dihydro-1H-imidazo[4,5-b]pyridin-1-yl)methyl)cyclo-hexyl)nicotinamide] | < 300 |
| CNC(=O)c1ccc(-n2c(=O)n(C[C@H]3CC[C@H](NC(=O)c4cc(Cl)cnc4C(F)F)CC3)c3c(F)cccc32)cn1 [Example 548, 5-(3-(((1r,4r)-4-(5-chloro-2-(difluoromethyl)nicotina-mido)cyclohexyl)methyt)-4-fluoro-2-oxo-2,3-dihydro-1H-benzo[d]imidazol-1-yl)-N-methylpicolinamide] | < 300 |
| O=C(NCCF)c1ccc(-n2c(=O)n(C[C@H]3CC[C@H](NC(=O)c4cc(Cl)cnc4C(F)F)CC3)c3ccccc32)cn1 [Example 549, 5-(3-(((1r,4r)-4-(5-chloro-2-(difluoromethyl)nicotina-mido)cyclohexyl)methyl)-2-oxo-2,3-dihydro-1H-benzo[d]imidazol-1-yl)-N-(2-fluoroethyl)picolinamide] | < 300 |
| CCNC(=O)c1ccc(-n2c(=O)n(C[C@H]3CC[C@H](NC(=O)c4cc(Cl)cnc4C(F)F)CC3)c3ccccc32)cn1 [Example 551, 5-(3-(((1r,4r)-4-(5-chloro-2-(difluoromethyl)nicotina-mido)cyclohexyl)methyl)-2-oxo-2,3-dihydro-1H-benzo [d]imidazol-1-yl)-N-ethylpicolinamide] | < 300 |
| CNc1ncc(-n2c(=O)n(C[C@H]3CC[C@H](NC(=O)c4cc(Cl)cnc4C)CC3)c3ccccc32)cc1F [Example 552, 5-chloro-N-((1r,4r)-4-((3-(5-fluoro-6-(methylamino)pyridin-3-yl)-2-oxo-2,3-dihydro-1H-benzo[d]imidazol-1-yl)methyl)cyclohexyl)-2-methylnicotinamide] | < 300 |
